Source: patent US20260297060A1, “COMPOUNDS FOR THE DEGRADATION OF MUTANT BRAF” (C4 THERAPEUTICS, INC., priority 2023, published 2026)
Where two headings read alike, the source gives them in different places. Values belong to the compound of their own block, whether it stands above or below them.

What was measured:
[1] = target: T1, human bile salt export pump (BSEP) efflux transporter (Homo sapiens, UniProt O95342); assay: BSEP Vesicular Transport Inhibition Assay (IC50 determination); format: biochemical; conditions: human BSEP (HEK293) vesicles; taurocholate 0.2 μM; 4 mM Mg-ATP; 10 concentrations, 1 replicate; in nM
T1 construct: purchased SOLVO Biotechnology Charles River Laboratories, Szeged, Hungary; host or cells: HEK293 (inside out membrane vesicles)
T1 sequence (O95342 whole entry): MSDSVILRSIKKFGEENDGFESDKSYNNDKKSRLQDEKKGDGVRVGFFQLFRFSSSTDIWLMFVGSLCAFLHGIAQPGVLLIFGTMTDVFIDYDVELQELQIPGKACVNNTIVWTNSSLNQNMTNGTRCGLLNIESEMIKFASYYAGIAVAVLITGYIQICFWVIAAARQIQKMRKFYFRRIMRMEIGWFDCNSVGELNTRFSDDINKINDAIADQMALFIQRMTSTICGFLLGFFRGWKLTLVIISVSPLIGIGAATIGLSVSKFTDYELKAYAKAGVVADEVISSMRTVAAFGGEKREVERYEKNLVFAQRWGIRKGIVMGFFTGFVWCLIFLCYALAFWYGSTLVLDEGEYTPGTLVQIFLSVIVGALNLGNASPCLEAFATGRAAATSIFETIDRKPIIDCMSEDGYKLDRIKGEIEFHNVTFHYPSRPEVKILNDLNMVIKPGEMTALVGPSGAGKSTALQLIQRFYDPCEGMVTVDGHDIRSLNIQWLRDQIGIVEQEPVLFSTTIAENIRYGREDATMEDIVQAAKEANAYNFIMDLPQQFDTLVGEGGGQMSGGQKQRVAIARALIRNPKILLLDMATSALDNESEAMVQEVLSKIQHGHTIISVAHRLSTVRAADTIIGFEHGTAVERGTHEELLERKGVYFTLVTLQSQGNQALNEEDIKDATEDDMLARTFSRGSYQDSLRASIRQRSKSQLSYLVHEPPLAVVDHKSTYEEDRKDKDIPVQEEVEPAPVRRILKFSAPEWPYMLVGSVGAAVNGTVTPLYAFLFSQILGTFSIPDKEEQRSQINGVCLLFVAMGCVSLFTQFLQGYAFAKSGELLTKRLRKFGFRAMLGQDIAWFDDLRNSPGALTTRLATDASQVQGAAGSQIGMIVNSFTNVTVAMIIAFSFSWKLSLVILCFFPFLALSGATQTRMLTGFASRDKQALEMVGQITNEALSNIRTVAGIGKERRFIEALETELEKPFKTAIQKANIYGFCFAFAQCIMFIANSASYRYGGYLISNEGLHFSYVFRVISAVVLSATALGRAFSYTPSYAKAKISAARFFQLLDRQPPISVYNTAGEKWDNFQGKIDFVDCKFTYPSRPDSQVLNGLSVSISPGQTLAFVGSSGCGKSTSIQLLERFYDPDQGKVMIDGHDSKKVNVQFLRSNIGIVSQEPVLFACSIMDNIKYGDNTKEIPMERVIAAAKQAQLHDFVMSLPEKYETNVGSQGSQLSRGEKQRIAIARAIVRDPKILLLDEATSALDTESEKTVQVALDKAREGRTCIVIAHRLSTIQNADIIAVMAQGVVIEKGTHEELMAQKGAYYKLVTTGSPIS
Outline: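 Inside-out membrane vesicles from HEK293 cells expressing human BSEP were incubated with taurocholate probe substrate and compound (10 concentrations, single replicate) with 4 mM Mg-ATP, or 4 mM AMP for background, for 5 min at 37 °C. Vesicle-trapped substrate was quantified by liquid scintillation counting after filtration.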

[2] = Example 6 pharmacokinetics assay for efficacy study (plasma, liver); format: in vivo, BALB/c nude mice; conditions: mouse, po, p.o., QD × 21 days
Protocol: For efficacy study, compounds were tested in the A375 human melanoma xenografts. Known BRAF inhibitors encorafenib, and dabrafenib were used as positive controls. Encorafenib and dabrafenib were administered to BALB/c nude mice bearing A375 tumors on PG-D1 and dosed PO daily (QD) for 3 weeks. Encorafenib was dosed at 35 mg/kg. Dabrafenib was dosed at 100 mg/kg. Compound 83, Compound 93, Compound 70, and Compound 54 were administered to BALB/c nude mice bearing A375 tumors on PG-DO and dosed PO twice per day (BID) for 3 weeks. Compound 83, Compound 93, Compound 70, and Compound 54 were dosed at 10 mg/kg.
The plasma samples were collected at predetermined time points for PK analysis. The mice were euthanized at predetermined time points post the treatment. The blood samples were collected into the 1.5 mL Eppendorf tubes containing 15 μL of 0.5 M EDTA-K2. And then the anticoagulant blood samples were centrifuged at 2,500 g at 4° C. for 15 minutes. The plasma samples were separated into 2 aliquots. The 1st was used for PK analysis, and the 2nd served as backup. The samples were stored at −80° C. before bioanalysis.
Liver samples were collected at predetermined time points for PK analysis. The left lobe of the liver was dissected out and split into 2 parts. The 1st part was used for PK analysis and the 2nd part served as the backup for the study. The samples were transferred into pre-labeled tubes and quickly froze in liquid nitrogen within 2 minutes after dissection. The samples were stored at −80° C. before bioanalysis.
For efficacy study, the harvested plasma and liver were processed for pharmacokinetics analysis by LC/MS/MS with a concentration range of 2.00-2000 ng/mL for Encorafenib and Dabrafenib in plasma, 0.20-200 ng/mL for Encorafenib and Dabrafenib in liver, 50.0-50000 ng/mL for compound 83 and compound 70 in plasma, 20.0-20000 ng/mL for Compound 93 and Compound 54 in plasma, 5.00-5000 ng/mL for compound 93, compound 83, compound 70 and compound 54 in liver.

Compound: CO[C@@H]1CCN(S(=O)(=O)Nc2ccc(F)c(Oc3ccc4ncn(C5CC6(CCN(C7CC8(C7)CN(c7cc9c(cc7F)c(N7CCC(=O)NC7=O)nn9C)C8)CC6)C5)c(=O)c4c3)c2C#N)C1 (stereo partly drawn) [Compound 269, (3R)-N-[2-cyano-3-[3-[7-[2-[3-(2,4-dioxohexahydropyrimidin-1-yl)-5-fluoro-1-methyl-indazol-6-yl]-2-azaspiro[3.3]heptan-6-yl]-7-azaspiro[3.5]nonan-2-yl]-4-oxo-quinazolin-6-yl]oxy-4-fluoro-phenyl]-3-methoxy-pyrrolidine-1-sulfonamide]
- BSEP Inhibition/IC50 [1]: >40000

Compound: COC1CN(S(=O)(=O)Nc2ccc(F)c(Oc3ccc4ncn(C5CC6(CCN(C7CC8(C7)CN(c7cc9c(cc7F)c(N7CCC(=O)NC7=O)nn9C)C8)CC6)C5)c(=O)c4c3)c2C#N)C1 (stereo not drawn) [Compound 280, N-[2-cyano-3-[3-[7-[2-[3-(2,4-dioxohexahydropyrimidin-1-yl)-5-fluoro-1-methyl-indazol-6-yl]-2-azaspiro[3.3]heptan-6-yl]-7-azaspiro[3.5]nonan-2-yl]-4-oxo-quinazolin-6-yl]oxy-4-fluoro-phenyl]-3-methoxy-azetidine-1-sulfonamide]
- BSEP Inhibition/IC50 [1]: 26550

- concentration at 6 h ([2]; liver, 100 mg/kg, read-out: Concentration in Liver (mean ± SEM)): 216 ± 30.8 ng/g
- concentration at 6 h ([2]; plasma, 100 mg/kg, read-out: Concentration in Plasma (mean ± SEM)): 86.1 ± 15.4 ng/mL
Compound: CC(C)(C)c1nc(-c2cccc(NS(=O)(=O)c3c(F)cccc3F)c2F)c(-c2ccnc(N)n2)s1 [Dabrafenib, dabrafenib, reference compound]

Compound: COC(=O)N[C@@H](C)CNc1nccc(-c2cn(C(C)C)nc2-c2cc(Cl)cc(NS(C)(=O)=O)c2F)n1 [Encorafenib, encorafenib, reference compound]
- concentration at 6 h ([2]; liver, 35 mg/kg, read-out: Concentration in Liver (mean ± SEM)): 481 ± 272 ng/g
- concentration at 6 h ([2]; plasma, 35 mg/kg, read-out: Concentration in Plasma (mean ± SEM)): 992 ± 559 ng/mL
